Source: patent US12559464B2, “Quinazolinone dione compounds and uses thereof” (Edgewise Therapeutics, Inc., priority 2023, dated 2026)

Tests used:
[1] = test system: myosin ATPase, Rabbit Psoas myofibrils; experiment: Myofibril ATPase assay, rabbit psoas (skeletal) myofibrils; assay type: biochemical; conditions: Rabbit Psoas Prep pCa 25 GEOM_MEAN; for Rabbit Psoas EC25 (Y75 value): concentration required to reduce myosin ATP-ase activity by 25%; for Rabbit Psoas Y125 value (marked #): concentration required to increase myosin ATP-ase activity by 25%
Procedure: [Worded in the source for another species; this species is reported under the same test.] (§1) Myofibril ATPase assays are known in the art to be useful in evaluating small molecules for the treatment of HCM and other cardiac indications. Myosin ATPase activity is assessed by using a coupled reaction system, in which ADP generated by the myosin ATPase function is coupled to the disappearance of NADH through the pyruvate kinase/lactate dehydrogenase (PK-LDH) system. ATPase activity produces ADP, which is used as a substrate for PK to produce pyruvate and regenerate ATP. The pyruvate is then used as a substrate by LDH to oxidize NADH to NAD+. The rate of the reaction is monitored through the time-dependent disappearance of NADH using absorbance at 340 nm, which, when the couple system is in stoichiometric excess, is directly correlated to the ATPase activity of the myosin. Inhibition of ATPase activity by the assayed compounds is indicated by a reduced rate of NADH loss, relative to vehicle-treated controls, over the experimental time window. Porcine Ventricle are the primary sources of myofibril material.
(§2) Materials: The following stock solutions and reagents were used in the Myofibril ATPase Assay: Stock Solutions; PIPES, 200 mM and 120 mM in H2O, pH 7.0; MgCl2 in H2O, 200 mM; PM12 Buffer, 10×: 120 mM PIPES (from 200 mM stock), 20 mM MgCl2 (from 200 mM stock); PBS Buffer, 1X: 135 mM NaCl, […], 10 mM Na(PO4)2, 1.8 mM K2(PO4), pH 7.4; EGTA in H2O, 250 mM; CaCl2) in H2O, 500 mM; DTT in H2O, 1 M; BSA in H2O, 10 mg/mL; ATP in 1×PBS, 50 mM; NADH in 1X PM12 and 1 mM DTT, 26 mM; PEP in 1X PM12, 78 mM, pH 7.0.
(§3) Stock Solutions of pCa buffer. Combine PIPES, CaCl2, and EGTA solutions with water. Adjust pH to 7.0 and bring final volume to 100 mL.
(§4) Buffer A & Buffer B. Prepare buffers A and B according to the table below.
(§5) Myofibril ATPase Assay Procedure: BSA, ATP, NADH, PEP, and DTT solutions were thawed at room temperature, then transferred to ice. Pellet-frozen myofibrils were transferred with approximately twice the required volume into a sufficiently large tube and capped. Myofibrils were thawed by rolling in a water bath for approximately 15 min at room temperature and cooled on ice. Buffers A and B were prepared by adjusting volumes as necessary for required number of wells and stored on ice. 0.5 μL of the compounds to be assayed were added into wells. 25 μL of Buffer A was dispensed into the wells, followed by 25 μL of Buffer B. The wells were measured for absorbance at 340 nm, using a kinetic protocol in which the wells are read every 1.5-2 min for 75 min. Assay data analysis was performed using a python script that filtered the raw data to retain those points falling between a starting and ending time and between a maximum and minimum absorbance, then used the filtered time-domain 340 nm absorbance data in each well to calculate a slope via linear regression analysis in units of mAU/min. Compound slopes were normalized between 100% and 0% activity, where 100% represented the slope of wells containing only compound vehicle, and fit to a 4-parameter logistic model. In addition to the fit parameters, the EC25% values were calculated, relative to the 100% normalized value. Additionally, the Y125 values were calculated for compounds that increased myosin ATP-ase activity. Fit parameters, calculated effective concentrations, filtered raw data, and calculated slopes were exported, in addition to compound-specific graphs of normalized ATPase activity versus concentration in μM. Each value reported in Table 8 is either a Y75 value or a Y125 value. Values without pound sign, #, are Y75 values, which reflect the concentration required to reduce myosin ATP-ase activity by 25% (e.g., Y-axis activity value is 75% of initial value), relative to myosin ATP-ase activity in the absence of exogenous compound. […]

[2] = test system: myosin ATPase, Porcine Atria myofibrils; experiment: Myofibril ATPase assay, porcine atria myofibrils; assay type: biochemical; conditions: Porcine Atria Prep pCa 25 GEOM_MEAN; for Porcine Atria EC25 (Y75 value): concentration required to reduce myosin ATP-ase activity by 25%
[3] = molecular target: T1, myosin ATPase, Porcine Ventricle myofibrils (Sus scrofa, UniProt P79293); experiment: Myofibril ATPase assay, porcine ventricle myofibrils; assay type: biochemical, porcine (Yucatan minipigs); conditions: concentration required to reduce myosin ATP-ase activity by 25%; Porcine Ventricle Prep pCa 25 GEOM_MEAN
T1 construct: Myofibrils from porcine cardiac muscle was isolated from the left ventricle of Yucatan minipigs; tissue Exemplar Genetics; host or cells: left ventricle of Yucatan minipigs, myofibrils
Procedure: as §1, §2, §3, §4, §5

T1 sequence (P79293 whole entry): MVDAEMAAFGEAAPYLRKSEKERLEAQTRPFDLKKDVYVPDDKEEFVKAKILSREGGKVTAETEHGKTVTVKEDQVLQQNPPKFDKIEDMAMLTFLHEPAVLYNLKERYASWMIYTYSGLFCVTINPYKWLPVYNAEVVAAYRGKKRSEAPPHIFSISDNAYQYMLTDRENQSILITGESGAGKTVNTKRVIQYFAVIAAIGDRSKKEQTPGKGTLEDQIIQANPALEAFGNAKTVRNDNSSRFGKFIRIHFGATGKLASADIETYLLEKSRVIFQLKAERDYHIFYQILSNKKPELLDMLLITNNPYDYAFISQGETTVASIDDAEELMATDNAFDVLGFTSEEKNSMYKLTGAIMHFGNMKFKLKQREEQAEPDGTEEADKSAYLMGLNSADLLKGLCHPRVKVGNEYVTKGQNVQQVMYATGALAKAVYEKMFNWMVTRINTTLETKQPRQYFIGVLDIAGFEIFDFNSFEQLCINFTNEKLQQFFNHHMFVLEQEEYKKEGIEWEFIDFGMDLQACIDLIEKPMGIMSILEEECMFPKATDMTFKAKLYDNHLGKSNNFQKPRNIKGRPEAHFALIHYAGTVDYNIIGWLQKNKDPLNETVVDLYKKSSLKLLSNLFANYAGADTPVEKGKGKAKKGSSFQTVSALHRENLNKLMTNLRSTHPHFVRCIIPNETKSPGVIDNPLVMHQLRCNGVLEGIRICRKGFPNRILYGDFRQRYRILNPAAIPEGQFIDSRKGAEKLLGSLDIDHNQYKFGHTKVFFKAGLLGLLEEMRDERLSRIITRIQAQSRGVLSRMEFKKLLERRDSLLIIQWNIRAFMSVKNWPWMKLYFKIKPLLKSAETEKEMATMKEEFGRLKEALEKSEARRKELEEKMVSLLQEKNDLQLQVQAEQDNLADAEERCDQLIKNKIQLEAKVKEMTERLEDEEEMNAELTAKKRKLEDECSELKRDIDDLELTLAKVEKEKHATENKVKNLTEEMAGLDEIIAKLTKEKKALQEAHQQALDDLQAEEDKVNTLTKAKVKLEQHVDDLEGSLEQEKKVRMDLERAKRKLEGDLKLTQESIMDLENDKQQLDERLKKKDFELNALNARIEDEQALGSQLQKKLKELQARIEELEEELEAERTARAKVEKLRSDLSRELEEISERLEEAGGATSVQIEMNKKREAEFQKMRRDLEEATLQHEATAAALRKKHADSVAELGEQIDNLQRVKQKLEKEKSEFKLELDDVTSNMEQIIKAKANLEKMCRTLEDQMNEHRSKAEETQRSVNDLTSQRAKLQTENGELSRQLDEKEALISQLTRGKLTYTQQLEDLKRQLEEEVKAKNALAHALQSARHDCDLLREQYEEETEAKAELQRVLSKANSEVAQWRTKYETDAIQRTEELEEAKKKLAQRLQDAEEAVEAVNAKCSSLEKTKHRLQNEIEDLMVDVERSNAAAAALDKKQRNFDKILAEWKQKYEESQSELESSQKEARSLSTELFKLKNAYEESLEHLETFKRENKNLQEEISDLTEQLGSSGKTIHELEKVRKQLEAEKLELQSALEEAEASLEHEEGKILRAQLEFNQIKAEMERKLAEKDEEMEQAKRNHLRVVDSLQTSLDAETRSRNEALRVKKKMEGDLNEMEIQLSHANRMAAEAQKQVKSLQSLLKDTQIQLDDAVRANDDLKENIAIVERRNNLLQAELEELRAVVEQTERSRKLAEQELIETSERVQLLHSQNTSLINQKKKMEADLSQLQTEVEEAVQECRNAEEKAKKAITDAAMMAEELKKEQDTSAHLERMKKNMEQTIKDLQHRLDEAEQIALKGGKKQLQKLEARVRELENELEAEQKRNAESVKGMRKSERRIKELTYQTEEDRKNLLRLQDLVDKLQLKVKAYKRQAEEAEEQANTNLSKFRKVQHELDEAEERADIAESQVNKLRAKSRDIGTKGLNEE

Row | Compound | Rabbit Psoas EC25 (Y75 value) [1] [µM] | Porcine Atria EC25 (Y75 value) [2] [µM] | Porcine Ventricle EC25 (Y75 value) [3] [µM] | Rabbit Psoas Y125 value (marked #) [1] | Porcine Atria Y125 value (marked #) ([2]; concentration required to increase myosin ATP-ase activity by 25%)
1 | C[C@H](NC(=O)Cn1c(=O)[nH]c2ccc(F)cc2c1=O)c1cnc(C#N)nc1 (single isomer, unassigned) [Compound 210] | 0.174 | 0.118 | 0.559 | – | –
2 | C[C@H](NC(=O)[C@H](CC1CC1)n1c(=O)[nH]c2ccccc2c1=O)c1ncc(F)cc1F (single isomer, unassigned) [Compound 211] | 100 | 100 | 100 | – | –
3 | C[C@H](NC(=O)[C@@H](CC1CC1)n1c(=O)[nH]c2ccccc2c1=O)c1ncc(F)cc1F (single isomer, unassigned) [Compound 212] | 100 | 100 | 100 | – | –
4 | C[C@H](NC(=O)[C@H](CC1CC1)n1c(=O)[nH]c2ccccc2c1=O)c1ccc(F)cc1F (single isomer, unassigned) [Compound 501] | 84.531 | 100 | 50.21 | – | –
5 | C[C@H](NC(=O)[C@@H](CC1CC1)n1c(=O)[nH]c2ccccc2c1=O)c1ccc(F)cc1F (single isomer, unassigned) [Compound 502] | 13.814 | 43.27 | 100 | – | –
6 | Cc1cc(F)ccc1[C@H](C)NC(=O)Cn1c(=O)[nH]c2ccccc2c1=O (single isomer, unassigned) [Compound 503] | 0.36 | 0.1046 | 1.526 | – | –
7 | C[C@H](NC(=O)C(Cc1ccccc1)n1c(=O)[nH]c2ccccc2c1=O)c1ccc(F)cc1F (single isomer, unassigned) [Compound 504] | – | 20.67 | 43.467 | 3.28^#^ μM | –
8 | C[C@H](NC(=O)C(c1cccnc1)n1c(=O)[nH]c2ccccc2c1=O)c1ccc(F)cc1F (single isomer, unassigned) [Compound 508] | 100 | 100 | 100 | – | –
9 | CCC(C(=O)N[C@@H](C)c1ccc(F)cc1F)n1c(=O)[nH]c2ccccc2c1=O (single isomer, unassigned) [Compound 509] | 100 | 100 | 100 | – | –
10 | C[C@H](NC(=O)C(c1ccccc1)n1c(=O)[nH]c2ccccc2c1=O)c1ccc(F)cc1F (single isomer, unassigned) [Compound 510] | 100 | 100 | 100 | – | –
11 | C[C@H](NC(=O)C(CO)n1c(=O)[nH]c2ccccc2c1=O)c1ccc(F)cc1F (single isomer, unassigned) [Compound 511] | 35.849 | 2.118 | 100 | – | –
12 | CC(C)CC(C(=O)N[C@@H](C)c1ccc(F)cc1F)n1c(=O)[nH]c2ccccc2c1=O (single isomer, unassigned) [Compound 512] | – | – | 100 | 23.575^#^ μM | 30.14^# μM
13 | CC(C)C(C(=O)N[C@@H](C)c1ccc(F)cc1F)n1c(=O)[nH]c2ccccc2c1=O (single isomer, unassigned) [Compound 513] | 100 | 100 | 100 | – | –
14 | C[C@H](NC(=O)Cn1c(=O)[nH]c2ccccc2c1=O)c1cc(C(F)(F)F)cc(C(F)(F)F)c1 (single isomer, unassigned) [Compound 517] | 100 | 100 | 100 | – | –
15 | C[C@@H](NC(=O)Cn1c(=O)[nH]c2ccccc2c1=O)c1ccc(Cl)cc1 (single isomer, unassigned) [Compound 526] | 100 | 100 | 100 | – | –
16 | COc1ccc([C@@H](C)NC(=O)Cn2c(=O)[nH]c3ccccc3c2=O)cc1 (single isomer, unassigned) [Compound 528] | 100 | 100 | 100 | – | –
17 | COc1ccc([C@H](C)NC(=O)Cn2c(=O)[nH]c3ccccc3c2=O)cc1 (single isomer, unassigned) [Compound 529] | 100 | 100 | 100 | – | –
18 | C[C@H](NC(=O)Cn1c(=O)[nH]c2ccccc2c1=O)c1ccc(Cl)cc1 (single isomer, unassigned) [Compound 530] | 3.24 | 0.445 | 4.63 | – | –
19 | C[C@@H](NC(=O)Cn1c(=O)[nH]c2ccccc2c1=O)c1ccccc1 (single isomer, unassigned) [Compound 533] | 100 | 100 | 100 | – | –
20 | C[C@H](NC(=O)Cn1c(=O)[nH]c2ccccc2c1=O)c1ccccc1 (single isomer, unassigned) [Compound 534] | 100 | 100 | 100 | – | –
21 | Cc1c(F)ccc2[nH]c(=O)n(CC(=O)N[C@@H]3COc4cc(C#N)cnc43)c(=O)c12 (single isomer, unassigned) [Compound 701] | 0.023 | 0.07 | 0.075 | – | –
22 | Cc1c(F)ccc2[nH]c(=O)n(CC(=O)N[C@H]3COc4cc(C#N)cnc43)c(=O)c12 (single isomer, unassigned) [Compound 702] | 4.019 | 3.03 | 7.299 | – | –
23 | Cc1c(F)ccc2[nH]c(=O)n(CC(=O)N[C@H](C)c3ncc(C#N)cn3)c(=O)c12 (single isomer, unassigned) [Compound 3005] | 2.34 | 2.78 | 11.35 | – | –
24 | Cc1c(F)ccc2[nH]c(=O)n(CC(=O)N[C@H](C)c3ccc(C#N)cn3)c(=O)c12 (single isomer, unassigned) [Compound 3009] | 0.06 | 0.10 | 0.25 | – | –
25 | Cc1c(F)ccc2[nH]c(=O)n(CC(=O)N[C@@H](C)c3ccc(C#N)cn3)c(=O)c12 (single isomer, unassigned) [Compound 3010] | 1.59 | 1.97 | 1.90 | – | –
